What was measured:
BaF3 = assay: Antiproliferative activity against mouse BaF3 cells harboring EGFR L858R/T790M/C797S triple mutant assessed as inhibition of cell growth incubated for 72 hrs by CellTiter-Glo luminescent assay; assay type: functional, cell-based; details: BaF3, 72 h
[1] = Antiproliferative activity against human NCI-H1975 cells harboring EGFR L858R/T790M mutant assessed as cell growth inhibition incubated for 72 hrs by CellTiter Glo assay; assay type: functional, cell-based; details: NCI-H1975, 72 h
[2] = target: Epidermal growth factor receptor (Homo sapiens, UniProt P00533, C797S/L858R/T790M); assay: Inhibition of EGFR L858R/T790M/C797S triple mutant (unknown origin)
Sequence of Epidermal growth factor receptor (Homo sapiens, UniProt P00533, C797S/L858R/T790M) (P00533 25-1210 T790M/C797S/L858R limits assumed): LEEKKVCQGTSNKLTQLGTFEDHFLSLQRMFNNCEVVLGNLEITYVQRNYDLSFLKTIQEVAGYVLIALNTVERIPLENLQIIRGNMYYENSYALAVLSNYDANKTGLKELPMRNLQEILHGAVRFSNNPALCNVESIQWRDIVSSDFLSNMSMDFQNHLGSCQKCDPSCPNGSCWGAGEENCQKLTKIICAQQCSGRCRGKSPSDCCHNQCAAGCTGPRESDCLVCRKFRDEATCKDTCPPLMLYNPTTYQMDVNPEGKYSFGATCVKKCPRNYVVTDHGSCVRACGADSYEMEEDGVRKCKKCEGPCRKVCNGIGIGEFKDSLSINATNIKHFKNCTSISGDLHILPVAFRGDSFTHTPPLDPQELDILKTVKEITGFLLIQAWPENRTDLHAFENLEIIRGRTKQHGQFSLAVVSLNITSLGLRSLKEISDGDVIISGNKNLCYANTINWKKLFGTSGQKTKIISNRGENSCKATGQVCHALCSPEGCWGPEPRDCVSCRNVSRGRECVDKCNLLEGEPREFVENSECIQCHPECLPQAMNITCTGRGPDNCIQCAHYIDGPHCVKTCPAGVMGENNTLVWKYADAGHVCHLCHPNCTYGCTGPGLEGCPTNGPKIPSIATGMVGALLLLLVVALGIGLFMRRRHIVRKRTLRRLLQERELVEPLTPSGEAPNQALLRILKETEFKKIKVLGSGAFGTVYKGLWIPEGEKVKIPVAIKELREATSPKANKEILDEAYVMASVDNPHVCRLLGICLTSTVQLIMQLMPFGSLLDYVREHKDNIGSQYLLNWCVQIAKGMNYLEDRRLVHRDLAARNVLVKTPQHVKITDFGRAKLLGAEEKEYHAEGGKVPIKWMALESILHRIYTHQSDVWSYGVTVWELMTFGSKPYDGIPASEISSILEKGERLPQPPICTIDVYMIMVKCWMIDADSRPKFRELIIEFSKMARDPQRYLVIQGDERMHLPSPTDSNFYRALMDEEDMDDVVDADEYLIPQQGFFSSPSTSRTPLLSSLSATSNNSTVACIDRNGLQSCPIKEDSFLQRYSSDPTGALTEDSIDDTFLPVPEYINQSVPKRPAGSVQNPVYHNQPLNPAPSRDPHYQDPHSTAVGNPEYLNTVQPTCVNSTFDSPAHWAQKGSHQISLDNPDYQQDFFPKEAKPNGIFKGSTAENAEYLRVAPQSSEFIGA

[3] = target: Epidermal growth factor receptor (Homo sapiens, UniProt P00533, C797S/EX19DEL/T790M); assay: Inhibition of EGFR del19/T790M/C797S triple mutant (unknown origin) in presence of ATP by FRET assay
Sequence of Epidermal growth factor receptor (Homo sapiens, UniProt P00533, C797S/EX19DEL/T790M) (P00533 whole entry, looked up, stated change not applied): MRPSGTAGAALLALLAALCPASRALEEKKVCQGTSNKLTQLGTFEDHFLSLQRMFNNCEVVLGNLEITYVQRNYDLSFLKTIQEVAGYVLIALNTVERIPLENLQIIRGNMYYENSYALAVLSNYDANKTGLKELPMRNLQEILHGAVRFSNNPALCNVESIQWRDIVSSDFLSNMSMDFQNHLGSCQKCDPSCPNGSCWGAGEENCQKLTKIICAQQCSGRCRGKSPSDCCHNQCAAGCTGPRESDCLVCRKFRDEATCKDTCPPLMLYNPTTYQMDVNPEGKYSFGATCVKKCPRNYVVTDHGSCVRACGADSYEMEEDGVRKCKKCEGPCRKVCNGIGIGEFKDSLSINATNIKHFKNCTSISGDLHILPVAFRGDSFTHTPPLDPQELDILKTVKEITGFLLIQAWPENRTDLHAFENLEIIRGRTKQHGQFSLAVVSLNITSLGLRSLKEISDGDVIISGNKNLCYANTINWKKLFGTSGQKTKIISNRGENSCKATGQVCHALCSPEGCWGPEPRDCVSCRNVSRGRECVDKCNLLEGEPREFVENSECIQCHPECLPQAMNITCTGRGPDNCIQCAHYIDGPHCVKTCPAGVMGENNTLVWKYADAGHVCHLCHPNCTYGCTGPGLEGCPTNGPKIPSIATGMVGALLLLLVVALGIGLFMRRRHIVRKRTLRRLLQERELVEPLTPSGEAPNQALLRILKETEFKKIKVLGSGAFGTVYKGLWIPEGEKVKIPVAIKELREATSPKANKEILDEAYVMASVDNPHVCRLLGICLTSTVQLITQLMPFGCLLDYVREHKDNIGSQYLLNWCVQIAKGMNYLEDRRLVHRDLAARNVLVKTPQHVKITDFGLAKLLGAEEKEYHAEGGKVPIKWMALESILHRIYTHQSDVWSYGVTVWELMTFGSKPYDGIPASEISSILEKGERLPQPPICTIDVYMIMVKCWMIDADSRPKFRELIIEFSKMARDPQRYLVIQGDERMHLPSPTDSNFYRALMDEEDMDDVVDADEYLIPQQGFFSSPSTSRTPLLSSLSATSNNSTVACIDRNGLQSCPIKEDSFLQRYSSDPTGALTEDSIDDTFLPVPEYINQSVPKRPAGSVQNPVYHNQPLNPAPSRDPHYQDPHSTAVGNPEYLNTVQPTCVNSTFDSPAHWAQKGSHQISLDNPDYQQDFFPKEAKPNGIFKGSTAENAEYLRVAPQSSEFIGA

[4] = Clearance in cynomolgus monkey at 1 mg/kg, iv by LC-MS/MS analysis; assay type: ADME, organism-based, Macaca fascicularis; details: in vivo
[5] = target: Epidermal growth factor receptor (Homo sapiens, UniProt P00533); assay: Inhibition of wild type EGFR (unknown origin)
Sequence of Epidermal growth factor receptor (Homo sapiens, UniProt P00533) (P00533 whole entry): as the sequence (P00533 whole entry, looked up, stated change not applied) above

[6] = Antiproliferative activity against human NCI-H1975 cells harboring EGFR L858R/T790M/C797S mutant assessed as reduction in cell growth incubated for 72 hrs by SRB assay; assay type: functional, cell-based; details: NCI-H1975, 72 h
[7] = Intrinsic clearance in human liver microsomes; assay type: ADME, Microsome
[8] = target: Tyrosine-protein kinase BTK (Homo sapiens, UniProt Q06187); assay: Inhibition of wild type BTK (unknown origin) using TK as substrate incubated for 1 hr by HTRF assay
Sequence of Tyrosine-protein kinase BTK (Q06187 whole entry): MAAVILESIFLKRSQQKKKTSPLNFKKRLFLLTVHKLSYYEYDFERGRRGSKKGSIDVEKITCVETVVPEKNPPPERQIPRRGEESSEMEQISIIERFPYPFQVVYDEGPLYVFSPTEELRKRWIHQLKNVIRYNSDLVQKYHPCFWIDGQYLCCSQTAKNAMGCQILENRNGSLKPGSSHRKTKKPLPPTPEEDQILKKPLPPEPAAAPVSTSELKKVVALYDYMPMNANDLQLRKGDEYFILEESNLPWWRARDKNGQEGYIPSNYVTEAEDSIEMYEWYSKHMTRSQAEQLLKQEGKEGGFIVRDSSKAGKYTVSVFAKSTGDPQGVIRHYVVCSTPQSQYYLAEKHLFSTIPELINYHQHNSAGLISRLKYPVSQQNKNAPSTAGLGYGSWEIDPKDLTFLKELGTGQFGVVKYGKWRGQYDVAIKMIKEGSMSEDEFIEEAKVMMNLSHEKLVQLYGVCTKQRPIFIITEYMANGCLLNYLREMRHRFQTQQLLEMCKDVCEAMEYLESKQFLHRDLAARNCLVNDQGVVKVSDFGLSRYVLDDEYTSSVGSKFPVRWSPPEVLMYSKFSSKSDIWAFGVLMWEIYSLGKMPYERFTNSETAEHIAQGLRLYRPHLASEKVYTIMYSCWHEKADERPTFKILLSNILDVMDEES

A549 = assay: Antiproliferative activity against human A549 cells harboring wild type EGFR assessed as inhibition of cell proliferation incubated for 72 hrs by CCK8 assay; assay type: functional, cell-based; details: A549, 72 h
[9] = Antiproliferative activity against mouse Ba/F3 EGFR-T790M/C797S/L858R cells; assay type: functional, cell-based

Row | Structure (SMILES) | IC50 (BaF3) [nM] | IC50 [3] [nM] | other results
1 | COc1cc(N2CCC(N3CC(C)(CO)C3)CC2)c(C)cc1Nc1ncc(Br)c(Nc2ccc3nccnc3c2P(C)(C)=O)n1 | 17.7 |  | 
2 | CC(C)c1cnc(N2CC(O)C2C)c2cnc(Nc3ccnc(N4CCC(O)C(C)(F)C4)n3)cc12 (stereo not given) |  |  | IC50 [1]: 20 nM
3 | COc1cc(N2CCC(N3CCN(C)CC3)CC2)ccc1Nc1ncc(Cl)c(-c2cn(S(=O)(=O)C(C)C)c3ccccc23)n1 |  | 33.3 | IC50 [2]: 222 nM
4 | CC(C)c1ccc(N2CC(CS(C)(=O)=O)C2C)c2cnc(Nc3ccnc(N4CCC(O)C(C)(F)C4)n3)cc12 (stereo not given) |  |  | clearance [4]: 31.8 mL/min/kg
5 | COCCCc1nc(-c2ccc(F)cc2)c(-c2ccnc3[nH]c(-c4ccccc4)cc23)[nH]1 |  |  | IC50 [5]: 6 nM; IC50 [2]: 6 nM
6 | CNc1ncc(C(C)C)c2cc(Nc3ccnc(N4CCC(O)C(F)C4)n3)ncc12 (stereo not given) |  |  | IC50 [1]: 12 nM
7 | COc1cc(N2CCN(C)CC2)ccc1Nc1ncc(C(=O)OC(C)C)c(-c2cn(C)c3ccccc23)n1 | 615 |  | 
8 | CNC(=O)c1cnc(Nc2ccnc(N3CCC(O)CC3)n2)cc1NC(C)C |  |  | IC50 [1]: 46 nM
9 | CCS(=O)(=O)n1cc2c3cc(ccc31)OCCCCCCCOc1cc(ccc1N1CCOCC1)Nc1ncc(Cl)c-2n1 |  | 19 | 
10 | COC1CCN(c2nccc(Nc3cc4c(C(C)C)ccc(N5CC(CS(C)(=O)=O)C5C)c4cn3)n2)CC1F (stereo not given) |  |  | IC50 [6]: 1.1 nM; CLH [7]: 89 µL/min/mg
11 | CCS(=O)(=O)n1cc(-c2nc(Nc3cc(Cl)c(N4CCC(N5CCN(C)CC5)CC4)cc3OC)ncc2Cl)c2ccccc21 |  | 24.2 | IC50 [2]: 145 nM
12 | CCOC1CN(C2CCN(c3cc(OC)c(Nc4ncc(Br)c(Nc5ccc6c(c5P(C)(C)=O)OCCO6)n4)cc3C)CC2)C1 | 14 |  | 
13 | CCS(=O)(=O)n1cc2c3cc(ccc31)OCCCCCCOc1cc(ccc1N1CCOCC1)Nc1ncc(Cl)c-2n1 |  | 6.2 | 
14 | Cc1cc(Nc2ncc(Br)c(Nc3ccccc3NS(=O)(=O)C3CC3)n2)ccc1N1CCCN(C)CC1 |  |  | IC50 [5]: 70.7 nM
15 | CCS(=O)(=O)n1cc2c3ccc(cc31)OCCCCCCOc1cc(c(C)cc1N1CCOCC1)Nc1ncc(Cl)c-2n1 |  | 23.6 | 
16 | CCS(=O)(=O)n1cc2c3ccc(cc31)OCCCCCCOc1cc(ccc1N1CCOCC1)Nc1ncc(Cl)c-2n1 |  | 57 | 
17 | CCS(=O)(=O)n1cc2c3ccc(cc31)OCCCCCCOc1cc(c(Cl)cc1N1CCOCC1)Nc1ncc(Cl)c-2n1 |  | 6.2 | 
18 | COc1cc(N2CCC(N3CC(CC#N)C3)CC2)c(C)cc1Nc1ncc(Br)c(Nc2ccc3nccnc3c2P(C)(C)=O)n1 | 12.7 |  | 
19 | COc1cc(N2CCOCC2)c(-c2cnn(C)c2)cc1Nc1ncc(Cl)c(Nc2ccccc2P(C)(C)=O)n1 |  | 0.2 | IC50 [8]: 4.4 nM; IC50 [6]: 0.122 nM
20 | C=CC(=O)Nc1cc(Nc2ncc(C(=O)OC(C)C)c(-c3cn(C)c4ccccc34)n2)c(OC)cc1N(C)CCN(C)C [MOBOCERTINIB] | 271 |  | 
21 | CC(C)c1cnc(N2CC(CS(C)(=O)=O)C2)c2cnc(Nc3ccnc(N4CCC(O)C(C)(F)C4)n3)cc12 (stereo not given) |  |  | IC50 (A549): 5290 nM
22 | COCC1(C)CN(C2CCN(c3cc(OC)c(Nc4ncc(Br)c(Nc5ccc6nccnc6c5P(C)(C)=O)n4)cc3C)CC2)C1 | 22.3 |  | 
23 | CN1CCN(C2CCN(c3ccc(Nc4ncc(Cl)c(Nc5ccccc5P(C)(C)=O)n4)cc3Cl)CC2)CC1 |  |  | IC50 [2]: 0.7 nM
24 | Cc1cc(Nc2ncc(Cl)c(Nc3ccccc3NS(=O)(=O)C3CC3)n2)ccc1N1CCC(N(C)C)CC1 |  |  | IC50 [5]: 4.76 nM; IC50 [2]: 0.03 nM
25 | CCc1cc(Nc2ncc(Br)c(Nc3ccc4c(c3P(C)(C)=O)OCCO4)n2)c(OC)cc1N1CCC(N2CC(N(C)C)C2)CC1 | 8 | 0.08 | 
26 | CCS(=O)(=O)n1cc2c3ccc(cc31)OCCCCCCOc1cc(c(C3CC3)cc1N1CCOCC1)Nc1ncc(Cl)c-2n1 |  | 56.4 | 
27 | COc1cc(N2CCN(C(C)=O)CC2)ccc1Nc1nccc(Nc2ccc(Nc3ccc(S(=O)(=O)F)cc3)cc2)n1 |  |  | IC50 [5]: 210 nM; IC50 [2]: 110 nM

Row | Structure (SMILES) | IC50 (BaF3) [nM] | IC50 [3] [nM] | other results
28 | CCS(=O)(=O)n1cc2c3cc(ccc31)OCCCCCOc1cc(ccc1N1CCOCC1)Nc1ncc(Cl)c-2n1 |  | 19 | 
29 | COc1cc(N2CCC(N3CC(N(C)C)C3)CC2)c(C)cc1Nc1ncc(Br)c(Nc2ccc3nccnc3c2P(C)(C)=O)n1 | 12.7 |  | 
30 | CCS(=O)(=O)n1cc2c3ccc(cc31)OCCCCCOc1cc(ccc1N1CCOCC1)Nc1ncc(Cl)c-2n1 |  | 141 | 
31 | COc1cc(N2CCC(N(C)C)CC2)ccc1Nc1ncc(C(=O)Oc2ccccc2)c(-c2c[nH]c3ccccc23)n1 | 7.1 |  | IC50 [5]: 0.01 nM
32 | COc1cc(N2CCC(N3CC(C(C)(C)O)C3)CC2)c(C)cc1Nc1ncc(Br)c(Nc2ccc3nccnc3c2P(C)(C)=O)n1 | 18 |  | 
33 | COc1cc(N2CCN(C)CC2)c(-c2cn[nH]c2)cc1Nc1ncc(Cl)c(Nc2ccccc2P(C)(C)=O)n1 |  | 0.23 | 
34 | COc1cc(N2CCC(N3CCN(C)CC3)CC2)c(-c2cnn(C)c2)cc1Nc1ncc(Cl)c(Nc2ccccc2P(C)(C)=O)n1 |  | 0.32 | 
35 | CCOC1CN(C2CCN(c3cc(OC)c(Nc4ncc(Br)c(Nc5ccc6nccnc6c5P(C)(C)=O)n4)cc3C)CC2)C1 | 29 |  | 
36 | COc1cc(N2CCC(N3CC(CO)C3)CC2)c(C)cc1Nc1ncc(Br)c(Nc2ccc3nccnc3c2P(C)(C)=O)n1 | 41 |  | 
37 | CCc1cc(Nc2ncc(Br)c(Nc3ccc4c(c3P(C)(C)=O)OCO4)n2)c(OC)cc1N1CCC(N2CC(N(C)C)C2)CC1 | 40 | 0.15 | IC50 [2]: 0.4 nM
38 | Cc1cc(Nc2ncc(Cl)c(Nc3ccccc3P(C)(C)=O)n2)ccc1N1CCC(N2CCN(C)CC2)CC1 |  |  | IC50 [2]: 0.6 nM
39 | COCC1CN(C2CCN(c3cc(OC)c(Nc4ncc(Br)c(Nc5ccc6nccnc6c5P(C)(C)=O)n4)cc3C)CC2)C1 | 15 | 0.7 | 
40 | C=CC(=O)Nc1ccc(OC)c(Nc2cc(-c3[nH]c(CCCO)nc3-c3ccc(F)cc3)ccn2)c1 |  |  | IC50 [5]: 8 nM
41 | COc1cc(N2CCC(N)CC2)ccc1Nc1ncc(C(=O)OC(C)C)c(-c2cn(C)c3ccccc23)n1 | 354 |  | 
42 | CN(C)C1CCN(c2ccc(Nc3ncc(Br)c(Nc4ccccc4NS(=O)(=O)C4CC4)n3)cc2NS(C)(=O)=O)CC1 |  |  | IC50 [9]: 780 nM
43 | CN1CCCN(c2ccc(Nc3ncc(Br)c(Nc4ccccc4NS(=O)(=O)C4CC4)n3)cc2)CC1 | 5.6 |  | IC50 [5]: 0.61 nM
44 | COc1cc(N2CCC(N3CCN(C)CC3)CC2)ccc1Nc1ncc(Cl)c(-c2cn(S(=O)(=O)C3CC3)c3ccccc23)n1 |  | 25.6 | IC50 [2]: 4.3 nM
45 | CC(C)c1cnc(N2CCC2)c2cnc(Nc3ccnc(N4CCC(O)C(C)(F)C4)n3)cc12 (stereo not given) |  |  | IC50 [1]: 9.1 nM
46 | C=CC(=O)Nc1ccc(OC)c(Nc2cc(-c3[nH]c(SCCOC)nc3-c3ccc(F)cc3)ccn2)c1 |  |  | IC50 [2]: 35 nM
47 | CCS(=O)(=O)n1cc2c3cc(ccc31)OCCCCOc1cc(ccc1N1CCOCC1)Nc1ncc(Cl)c-2n1 |  | > 1000 | 
48 | COc1cc(N2CCC(N(C)C)CC2)c(-c2cnn(C)c2)cc1Nc1ncc(Cl)c(Nc2ccccc2P(C)(C)=O)n1 |  | 0.19 | 
49 | CCP(=O)(CC)c1ccccc1Nc1nc(Nc2cc(-c3cnn(C)c3)c(N3CCOCC3)cc2OC)ncc1Cl |  | 0.2 | 
50 | CCS(=O)(=O)n1cc2c3cc(ccc31)OCCCCCCCCOc1cc(ccc1N1CCOCC1)Nc1ncc(Cl)c-2n1 |  | 89 | 
51 | COc1cc(N2CCC(N3CC(F)(CO)C3)CC2)c(C)cc1Nc1ncc(Br)c(Nc2ccc3nccnc3c2P(C)(C)=O)n1 | 18.7 |  | 
52 | COc1cc(N2CCC(N(C)C)CC2)c(-c2cn[nH]c2)cc1Nc1ncc(Cl)c(Nc2ccccc2P(C)(C)=O)n1 |  |  | IC50 [2]: 0.5 nM
53 | COc1cc(N2CCN(C)CC2)ccc1Nc1ncc(C(=O)Oc2ccccc2)c(-c2cn(C)c3ccccc23)n1 | 94 |  | IC50 [5]: 0.05 nM
54 | OCCCc1nc(-c2ccc(F)cc2)c(-c2ccnc3[nH]c(-c4ccccc4)cc23)[nH]1 |  |  | IC50 [5]: < 0.5 nM

Source: ChEMBL document CHEMBL6087440, “Catalytic Lysine745 targeting strategy in fourth-generation EGFR tyrosine kinase inhibitors to address C797S mutation resistance” (Eur J Med Chem, 2025)
